The values that follow come from ChEMBL document CHEMBL2331113, “Synthesis of cyclic pyranopterin monophosphate, a biosynthetic intermediate in the molybdenum cofactor pathway” (J Med Chem, 2013).

Structures are written as SMILES.

Data set [1] can be described thus: Prodrug conversion in Tris/HCl buffer assessed as Escherichia coli MPT synthase-mediated 2-amino-6-(3,4-dihydroxybut-1-ynyl)pteridin-4(3H)-one formation after 30 mins by HPLC analysis. Type of data set: ADME. As to conditions: 0.5 h; call rule not given here.
Data set [2] in a line: Prodrug conversion in HEPES buffer assessed as Escherichia coli MPT synthase-mediated 2-amino-6-(3,4-dihydroxybut-1-ynyl)pteridin-4(3H)-one formation measured as activation of human apo-sulfite oxidase incubated for 30 mins prior to apo-sulfite oxidase addition measured after 30 mins by spectrophotometric analysis in presence of gephyrin. The settings on record: 0.5 h.
Data set [3] can be described thus: Half life of aerial oxidation of the compound at pH 3. Type of data set: physicochemical.

As for `Br.Nc1nc2c(c(=O)[nH]1)N[C@@H]1[C@H](N2)O[C@@H]2COP(=O)(O)O[C@@H]2C1(O)O`, the Drug metabolism entry in data set [1] and in data set [2] was “Dose-dependent effect” each time.
With `Nc1nc2c(c(=O)[nH]1)N[C@@H]1[C@H](N2)O[C@@H]2COP(=O)(O)O[C@@H]2C1(O)O` [FOSDENOPTERIN], the Drug metabolism result in data set [1] and in data set [2] was “Active” throughout. In data set [3], the half-life (as a rule, how long it takes for the measured level to halve) is 636 min.
